Results reported in patent US9216973B2, “Insecticidal compounds” (Syngenta Participations AG, priority 2008, dated 2015).

What was measured:
[1] = system: Plutella xylostella (Diamond back moth); assay: Plutella xylostella larvae test on artificial diet; type: in vivo; conditions: for pest or weed control at 200 ppm: 144 h, 200 ppm (concentration in well 18 ppm), artificial diet, L2 larvae, larval mortality and growth regulation after 6 days
Experimental: (§1) This Example illustrates the insecticidal and acaricidal properties of compounds of formula (I). The tests were performed as follows:
(§2) Cotton leaf discs were placed on agar in a 24-well microtiter plate and sprayed with test solutions at an application rate of 200 ppm. After drying, the leaf discs were infested with 5 L1 larvae. The samples were checked for mortality, feeding behavior, and growth regulation 3 days after treatment (DAT). The following compound gave at least 80% control of Spodoptera littoralis: A1, A2, A5, A6, A7, A8, A10, A11, A12, A13, A14, A15, A16, A17, A18, A19, A21, A22, A23, A24, A25, A30, A31, A32, A33, A34, A35, A39, A40, A41 A42, A43, A44, A45, A46, A47, A48, A49, A50, A51, A53, A54, A55, A59, A60, A61, A62. Heliothis virescens (Tobacco budworm): Eggs (0-24 h old) were placed in 24-well microtiter plate on artificial diet and treated with test solutions at an application rate of 200 ppm (concentration in well 18 ppm) by pipetting. After an incubation period of 4 days, samples were checked for egg mortality, larval mortality, and growth regulation. The following compound gave at least 80% control of Heliothis virescens: A1, A2, A3, A4, A5, A6, A7, A8, A10, A11, A12, A13, A14, A15, A16, A18, A19, A21, A22, A24, A25, A30, A31, A32, A33, A34, A35, A37, A38, A39, A40, A42, A43, A44, A45, A46, A47, A48, A49, A50, A51, A55, AA57, A58, A59, A60, A61, A62. Plutella xylostella (Diamond back moth): 24-well microtiter plate (MTP) with artificial diet was treated with test solutions at an application rate of 200 ppm (concentration in well 18 ppm) by pipetting. After drying, the MTP's were infested with L2 larvae (7-12 per well). After an incubation period of 6 days, samples were checked for larval mortality and growth regulation. The following compound gave at least 80% control of Plutella xylostella: A1, A2, A5, A6, A7, A8, A9, A10, A11, A12, A13, A14, A15, A16, A17, A18, A19, A20, A21, A22, A24, A25, A30, A31, A32, A33, A34, A35, A37, A38, A39, A40, A42, A43, A44, A45, A46, A47, A48, A49, A50, A51, A52, A53, A54, A55, A57, A58, A59, A60, A61, A62, B3. Diabrotica balteata (Corn root worm): A 24-well microtiter plate (MTP) with artificial diet was treated with test solutions at an application rate of 200 ppm (concentration in well 18 ppm) by pipetting. After drying, the MTP's were infested with L2 larvae (6-10 per well). After an incubation period of 5 days, samples were checked for larval mortality and growth regulation. The following compound gave at least 80% control of Diabrotica balteata: A1, A2, A5, A6, A7, A10, A11, A12, A13, A14, A15, A16, A17, A18, A19, A21, A22, A24, A25, A30, A31, A32, A33, A34, A35, A38, A39, A40, A42, A43, A44, A45, A46, A47, A48, A49, A50, A59, A60, A61, A62. Thrips tabaci (Onion thrips): Sunflower leaf discs were placed on agar in a 24-well microtiter plate and sprayed with test solutions at an application rate of 200 ppm. After drying, the leaf discs were infested with an […] population of mixed ages. After an incubation period of 7 days, samples were checked for mortality. The following compounds gave at least 80% control of Thrips tabaci: A1, A2, A5, A6, A7, A8, A10, A12, A13, A14, A15, A16, A17, A18, A19, A21, A24, A25, A30, A31, A32, A33, A34, A35, A39, A42, A43, A44, A45, A46, A47, A48, A49, A50, A51, A53, A54, A57, A58, A59, A60, A61, A62. Tetranychus urticae (Two-spotted spider mite): Bean leaf discs on agar in 24-well microtiter plates were sprayed with test solutions at an application rate of 200 ppm. After drying, the leaf discs are infested with mite populations of mixed ages. 8 days later, discs are checked for egg mortality, larval mortality, and adult mortality. The following compound gave at least 80% control of Tetranychus urticae: A1, A2, A4, A5, A6, A7, A8, A10, A11, A12, A13, A14, A15, A16, A17, A18, A19, A20, A21, A22, A30, A31, A32, A33, A34, A35, A39, A40, A41, A42, A43, A44, A45, A46, A47, A48, A49, A50, A51, A53, A54, A55, A57, A59, A60, A61, A62.

[2] = system: Tetranychus urticae (Two-spotted spider mite); assay: Tetranychus urticae bean leaf disc spray test; type: in vivo; conditions: for pest or weed control at 200 ppm: foliar, 192 h, 200 ppm spray on bean leaf discs, mite populations of mixed ages, egg, larval and adult mortality 8 days later, read-out: control of Tetranychus urticae
Experimental: as §1, §2

Cc1cc(C2=NOC(c3cc(Cl)cc(Cl)c3)(C(F)(F)F)C2O)ccc1C(=O)NC1CSC1 (centres unmarked) [A54]
pest or weed control at 200 ppm [1]: ≥ 80% | pest or weed control at 200 ppm [2]: ≥ 80%

Cc1cc(C2=NOC(c3cc(Cl)cc(Cl)c3)(C(F)(F)F)/C2=N/O)ccc1C(=O)NC1CS(=O)(=O)C1 (centres unmarked) [A55]
pest or weed control at 200 ppm [1]: ≥ 80% | pest or weed control at 200 ppm [2]: ≥ 80%

Cc1cc(C2=NOC(c3cc(Cl)cc(Cl)c3)(C(F)(F)F)/C2=N/O)ccc1C(=O)NC1(C)CSC1 (centres unmarked) [A56]
effect on mortality, feeding behavior, or growth regulation ([1]; same protocol, 200 ppm): little or no effect | effect on mortality, feeding behavior, or growth regulation ([2]; same protocol, 200 ppm): little or no effect

Cc1cc(C2=NOC(c3cc(Cl)cc(Cl)c3)(C(F)(F)F)C2F)ccc1C(=O)NC1CS(=O)(=O)C1 (centres unmarked) [A59]
pest or weed control at 200 ppm [1]: ≥ 80% | pest or weed control at 200 ppm [2]: ≥ 80%

Cc1cc(C2=NOC(c3cc(Cl)cc(Cl)c3)(C(F)(F)F)C2F)ccc1C(=O)NC1(C)CSC1 (centres unmarked) [A60]
pest or weed control at 200 ppm [1]: ≥ 80% | pest or weed control at 200 ppm [2]: ≥ 80%

Cc1cc(C2=NOC(c3cc(Cl)cc(Cl)c3)(C(F)(F)F)C2F)ccc1C(=O)NC1CSC1 (centres unmarked) [A61]
pest or weed control at 200 ppm [1]: ≥ 80% | pest or weed control at 200 ppm [2]: ≥ 80%

Cc1cc(C2=NOC(c3cc(Cl)cc(Cl)c3)(C(F)(F)F)C2F)ccc1C(=O)NC1C[S+]([O-])C1 (centres unmarked) [A62]
pest or weed control at 200 ppm [1]: ≥ 80% | pest or weed control at 200 ppm [2]: ≥ 80%
